Source: patent US9120774B2 (University of Kansas, priority 2009, dated 2015)

Assays:
[1] = system: bovine microvessel endothelial cells (BMECs); experiment: Transport across BMEC monolayers in vitro; type: in vitro ADME
Procedure: In this example, BMECs were grown on 0.4 μm polycarbonate membranes in a petri dish coated with rat tail collagen and fibronectin. […] Briefly, each chamber was filled with 3 mL of PBSA and the donor chamber included KU-1/A4 (10 μM). A temperature of 37° C. was maintained with an external circulating water bath and chamber contents were stirred with Teflon coated magnetic stir bars driven by an external console. At various time points (5, 15, 30, 45, and 90 minutes), 100 μL aliquots were removed from the receiver side and replaced with 100 μL of blank PBSA warmed to 37° C. Samples of the donor solution were also taken for analysis. All samples were analyzed for concentration by RP-HPLC analysis using a Shimadzu dual pump HPLC system equipped with an Alltech (C18, 4.6 mm×150 mm) column. The solvent system consisted of H2O (solvent A) and methanol (solvent B). Analytical samples were eluted with 20% solvent B over 10 minutes at a flow rate of 0.90 mL/min and UV detection at 208 nm. […] The integrity of the cell monolayer was tested post experiment by monitoring the permeability of [^14C]-sucrose, a low permeability marker. Radioactive samples were analyzed by liquid scintillation counting.

P-glycoprotein (P-gp) = P-glycoprotein (P-gp) (Bos taurus, UniProt A0A3Q1MB23); experiment: Rhodamine 123 uptake assay in BMECs
Sequence of P-glycoprotein (P-gp) (A0A3Q1MB23 1-1267): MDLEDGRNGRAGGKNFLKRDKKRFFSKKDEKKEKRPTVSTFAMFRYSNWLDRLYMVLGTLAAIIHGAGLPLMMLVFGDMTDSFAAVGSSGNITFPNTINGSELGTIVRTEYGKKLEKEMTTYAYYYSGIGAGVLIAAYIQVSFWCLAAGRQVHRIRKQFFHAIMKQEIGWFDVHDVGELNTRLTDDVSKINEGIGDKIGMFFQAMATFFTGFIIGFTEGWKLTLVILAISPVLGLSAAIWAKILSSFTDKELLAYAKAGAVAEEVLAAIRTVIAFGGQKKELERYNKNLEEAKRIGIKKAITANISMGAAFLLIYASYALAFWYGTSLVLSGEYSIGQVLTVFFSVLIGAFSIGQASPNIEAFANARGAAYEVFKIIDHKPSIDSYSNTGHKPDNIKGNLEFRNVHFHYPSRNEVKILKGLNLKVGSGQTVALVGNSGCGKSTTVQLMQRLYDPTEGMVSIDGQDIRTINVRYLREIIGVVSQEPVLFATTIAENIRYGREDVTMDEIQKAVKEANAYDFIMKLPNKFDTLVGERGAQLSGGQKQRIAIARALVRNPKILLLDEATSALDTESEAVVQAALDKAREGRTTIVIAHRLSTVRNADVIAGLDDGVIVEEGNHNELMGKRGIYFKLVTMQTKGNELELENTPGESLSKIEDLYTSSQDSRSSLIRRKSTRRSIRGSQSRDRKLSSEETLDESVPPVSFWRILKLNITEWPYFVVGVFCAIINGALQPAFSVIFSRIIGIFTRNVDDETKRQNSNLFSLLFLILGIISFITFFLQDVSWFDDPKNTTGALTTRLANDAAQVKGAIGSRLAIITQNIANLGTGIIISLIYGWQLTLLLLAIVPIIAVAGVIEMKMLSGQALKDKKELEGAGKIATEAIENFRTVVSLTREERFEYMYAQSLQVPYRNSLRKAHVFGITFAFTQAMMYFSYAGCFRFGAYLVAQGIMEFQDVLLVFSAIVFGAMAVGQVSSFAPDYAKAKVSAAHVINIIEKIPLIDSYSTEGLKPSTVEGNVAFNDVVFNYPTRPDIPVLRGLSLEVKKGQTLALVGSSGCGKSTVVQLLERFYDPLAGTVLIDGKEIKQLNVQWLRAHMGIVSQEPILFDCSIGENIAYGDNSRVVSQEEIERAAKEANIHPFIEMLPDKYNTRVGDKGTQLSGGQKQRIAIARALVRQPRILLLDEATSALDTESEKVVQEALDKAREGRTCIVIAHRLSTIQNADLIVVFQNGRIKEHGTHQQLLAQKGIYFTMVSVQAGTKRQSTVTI
Procedure: Taxol (10 μM) was used as a positive p-glycoprotein substrate.

[2] = system: androgen receptor in LAPC-4 prostate cancer cells; experiment: Western blot of androgen receptor in LAPC-4 cells; type: cell-based; conditions: LAPC-4 cells (wild type androgen receptor), 24 hours
Procedure: FIG. 3 (top panel) is a western blot analysis of prostate cancer LNCaP cells treated with KU-1/A4. The bottom panel is a western blot analysis of prostate cancer LAPC-4 cells incubated with KU-1/A4. Actin was used as a control in both assays. […] Western blot analysis of the effects of KU-1/A4 on Hsp90 client proteins in prostate cancer LNCaP cells. Cells were treated with varying concentrations of KU-1/A4 for 24 hours and probed for the androgen receptor (“AR”), protein kinase […] (“AKT”), Hsp90, and actin.
The steroid hormone receptors are also dependent upon the Hsp90 protein folding machinery for activation and hormone binding. To determine whether KU-1/A4 had similar effects on the androgen receptor, KU-1/A4 was tested in both a mutated androgen receptor-dependent prostate cancer cell line (LNCaP) and a wild type androgen receptor prostate cancer cell line (LAPC-4). More specifically, the prostate cancer cells were grown in RPMI with 10% fetal calf serum in a standard fashion. Once the cells had reached near confluence, they were treated with vehicle (DMSO) or varying concentrations of KU-1/A4 ranging from 10 nm to 100 μM for 24 hours. Cells were harvested and cell lysates prepared. […] More specifically, Western Blot analysis protein concentrations in serum samples were determined by the Pierce BCA protein assay kit according to the manufacturer's protocol. […]

## CO[C@@H]1[C@@H](O)[C@@H](O)[C@H](Oc2ccc3cc(NC(C)=O)c(=O)oc3c2)OC1(C)C [KU-1/A4, N-(7-((2R,3R,4S,5R)-3,4-dihydroxy-5-methoxy-6,6-dimethyl-tetrahydro-2H-pyran-2-yloxy)-2-oxo-2H-chromen-3-yl)acetamide]
[1]; 10 μM in donor chamber
  time until abluminal chamber concentration sufficed for full neuroprotective effects: ≤ 15 min
[1]; 10 μM in donor chamber, 90 minutes
  concentration in the receiving chamber: 1200 nM
[1]; 10 μM in donor chamber, up to 90 minutes
  transport across BMECs: time-dependent linear transport
[1]; 90 minutes
  receiving chamber concentration relative to concentration for 50% neuroprotection: 200 fold
P-glycoprotein (P-gp)
  P-gp substrate: not a substrate for P-gp
P-glycoprotein (P-gp); rhodamine 123 5 μM, Taxol 10 μM, KU-1/A4 up to 50 μM
  rhodamine 123 uptake: no effect on uptake
[2]
  androgen receptor levels: drastically reduced levels of the androgen receptor at lower concentrations
